Primed or numbered codes have the meaning given here. No end group written: not given here. C20 = lipophilic group with a 20-carbon chain; PEG27′ = polyethylene glycol, 27 units; cysteamide = C-terminal cysteamide; C16 = N-terminal C16 lipid; C18 = N-terminal C18 lipid; C18″ = C18 lipid
Assays:
[1] = tested on: Cyclophilin B (PPIB) gene expression in A549 cells; assay: In vitro assay for PPIB gene expression knockdown in A549 cells; format: cell-based, human; conditions: for % KD (vs QNeg) A549/PPIB: A549 cells, PPIB mRNA by RT-PCR 24 hours after transfection; for knockdown in the A549/PPIB assay: as compared to both Qneg and vehicle (data for vehicle not shown)
Method: Cyclophilin B (PPIB) gene expression knockdown was measured in A549 human alveolar basal epithelial cells. For PPIB gene knockdown measurements, A549 cells were transfected with an interfering RNA formulation, total RNA prepared 24 hours after transfection, and PPIB mRNA assayed by RT-PCR. QRT-PCR of 36B4 (acidic ribosomal phosphoprotein PO) mRNA expression was performed for normalization.
Confluency was about 50% at the time of transfection.
For PPIB gene knockdown cells were lysed and RNA prepared (Invisorb RNA Cell HTS 96-Kit/C, Invitek, Berlin, or RNeasy 96 Kit, Qiagen). Quantitative RT-PCR was performed using One-Step qRT-PCR kit (Invitrogen) on a DNA Engine Opticon2 thermal cycler (BioRad).

[2] = tested on: LacZ gene (bacterial galactosidase) in 9L/LacZ cells; assay: In vitro assay for LacZ gene expression knockdown in 9L cells
Method: 9L/LacZ is a rat gliosarcoma cell line stably expressing the LacZ gene that encodes bacterial galactosidase. LacZ gene knockdown measurements can be used as a primary activity-based in vitro assay for interfering RNA delivery formulations.
For LacZ gene knockdown measurements, 9L/LacZ cells were transfected with an RNAi formulation, and a β-galactosidase assay was performed on cells harvested at day 3 post transfection. An additional assay was performed to quantify protein concentration.
9L/LacZ cells were plated at 8000 cells/well (96-well) and incubated overnight in medium. Confluency was about 15-20% at the time of transfection. Transfection complex was prepared by adding an interfering RNA to OptiMEM™ medium and vortexing, separately adding a delivery formulation to OptiMEM™ medium and vortexing, and finally mixing the interfering RNA in medium with the delivery formulation in medium to make the transfection complex. The medium for incubated cells was replaced with fresh no-serum media (OptiMEM™ without serum) and transfection complex was added to each well. Cells were incubated 5 hrs, then after the addition of 100 microliters complete medium (DMEM plus 10% fetal bovine serum) were incubated overnight at 37° C. and 5% CO2. The next day, 24 hours after transfection, the medium was changed to fresh complete medium and the cells were incubated another 48 hrs at 37° C. and 5% CO2.
For LacZ gene knockdown, the harvested 9L/LacZ cells were washed in PBS, lysed in M-PER™ Reagent (Pierce), and incubated at room temperature for 15 minutes. Lysate was taken from each well for protein assay with a Micro BCA kit (Pierce, Thermo Fisher Scientific) and β-gal assay with All-in-One™ β-Galactosidase Assay Reagent (Pierce).

[3] = N:P ratio 2, β-galactosidase assay day 3 post transfection
[4] = N:P ratio 4, β-galactosidase assay day 3 post transfection

| Substance | % KD (vs QNeg) A549/PPIB ([1]; N:P ratio 2) [%] | % KD (vs QNeg) A549/PPIB ([1]; N:P ratio 4) [%] | % KD (vs QNeg) L/9lacZ [2, 3] [%] | % KD (vs QNeg) L/9lacZ [2, 4] [%] | knockdown in the A549/PPIB assay [1] |
| --- | --- | --- | --- | --- | --- |
| (C16)-HHHHHKHHHKKKHKHKKK-Cysteamide (C16-HHHHHKHHHKKKHKHKKK-cysteamide) | 14.7 | −19.8 | 12.0 | 12.4 | – |
| (C18)-HHHHHKHHHKKKHKHKKK-cysteamide (C18-HHHHHKHHHKKKHKHKKK-cysteamide) | 25.5 | 21.6 | −11.3 | −19.4 | significant knockdown |
| (C18)-HHHHRRRRRRRR-Cysteamide (C18-HHHHRRRRRRRR-cysteamide) | 15.3 | – | −0.8 | – | – |
| (C18)-PEG27-HHHHHHHHRRRRRRRR-amide ({C18″-PEG27′}-HHHHHHHHRRRRRRRR-NH2) | 30.6 | 7.4 | 9.2 | −16.1 | – |
| (C20)-(H)8(R)8(H)8K-NH-(C20) (C20-HHHHHHHHRRRRRRRRHHHHHHHHK(C20)) | 29.7 | 65.8 | 60.1 | 57.5 | significant knockdown |
| Ac-GALFLAFLAAALSLMGLWSQPKKKRKV-Cysteamide (Ac-GALFLAFLAAALSLMGLWSQPKKKRKV-cysteamide) | 20.5 | – | 29.1 | – | – |
| Ac-GALFLAFLAAALSLMGLWSQPKSKRKV-Cysteamide (Ac-GALFLAFLAAALSLMGLWSQPKSKRKV-cysteamide) | 15.5 | 16.0 | 29.5 | −9.3 | – |
| Ac-GALFLGFLGAAGSTMGAWSQPKSKRKV-amide (Ac-GALFLGFLGAAGSTMGAWSQPKSKRKV-NH2) | −8.1 | −3.7 | −0.4 | −1.6 | – |
| Ac-LIRLWSHLIHIWFQNRRLKWKKK-amide (Ac-LIRLWSHLIHIWFQNRRLKWKKK-NH2) | 8.7 | −28.8 | −19.9 | −4.5 | – |

From US9821067B2, “Lipopeptides for delivery of nucleic acids” (Marina Biotech, Inc., priority 2007, dated 2017)
